Drawing on US20240246963A1, “BIFUNCTIONAL COMPOUNDS AND PHARMACEUTICAL USES THEREOF” (RISEN (SUZHOU) PHARMA TECH CO., LTD., priority 2022, published 2024), this text covers percent protein degradation, Dmax and DC50 for twelve compounds.

This assay deals with T1, RAS G12D protein (Homo sapiens, UniProt P01116, G12D).
T1 construct: host or cells: Aspc-1 (AsPC-1) cells
As to the kind of experiment: Protein degradation study (western blot) in Aspc-1 cells. Format: cell-based. Conditions: for percent protein degradation at 0.005 µM / percent protein degradation at 0.05 µM: ASPC1, 24 h, Aspc-1 cells, 24 hours, read-out: Rate of protein degradation (%); for percent protein degradation at 0.005 µM: 0.005 μM compound; for percent protein degradation at 0.05 µM: 0.05 μM compound. Here is the method: Aspc-1 (Cobioer, CBP60546) cells in exponential growth phase were inoculated on a 6-well cell culture plate (Corning, 3516) at density of 1E6/well; and cells in the plate were cultured in a 37° C. incubator containing 5%-carbon dioxide. The next day, test compounds were dissolved in DMSO (Sigma, RNBF5902) for the preparation of a 10-mM concentration stock solution. The stock solution was diluted with complete medium (RPMI-1640 supplemented with 10% fetal bovine serum, 1% penicillin-streptomycin), yielding working solutions of various concentrations. The plate, after the addition of compounds, was placed in a 5% carbon dioxide incubator, and incubated at 37° C. for 24 hours (final DMSO concentration was 0.1%). The plate was then removed from the incubator, and the cells were washed twice with precooled PBS (Gibco, 14190250), followed by addition of 80 μL RIPA (CST, 9806S) lysis buffer (containing protease inhibitor (Invitrogen™, AM2696)) to each well. The adherent cells were scraped off with a cell scraper, and the cell lysate was transferred to a 1.5 mL centrifuge tube followed with a 30-minute incubation on ice. The lysate was then clarified with centrifugation at 12000 rpm for 10 min at 4° C. The supernatant was transferred into a new 1.5 mL centrifuge tube, and protein concentration was measured with BCA protein detection kit (Thermo Fisher, 23225). G12D protein level was assessed by western blot. A mixture of cell lysate (40 μL) and loading buffer (10 μL, 5×SDS (Beyotime, P0015L)) was denatured in a water-bath at 95° C. for 10 min. The denatured protein sample, at 30 μg/well, was loaded into a corresponding well of a 4-20% Bis-Tris gel (Kingsley, M00656). Protein samples were initially electrophoresed at 80 V for 30 minutes, followed by 120 V for 40 minutes, until the bromophenol blue strip ran to an appropriate position. After electrophoresis, iBlot2 (Life Technologies, IB21001) was used to transfer the separated samples onto PVDF film. The PVDF membrane was washed with double-distilled water and then blocked in TBST (Thermo Scientific, 28360) buffer containing 5% non-fat milk, for 2 hours. Blocked membrane was rinsed with tris-buffered saline tween-2 (Thermo Scientific, 28360, TBST) three times, 10 minutes each. Membrane was then incubated with 1:1000 diluted RAS Gi2D primary antibody (CST, cat #14429S) overnight at 4° C. Membrane was rinsed in a way described previously followed by 1 hour incubation of secondary antibody at room temperature. After washing the film for three times with TBST, ECL color developing solution was applied, and image was captured with Biorad Chemi Doc gel imager. The band gray value was quantified (Image Lab), and protein degradation level was calculated according to the following formulas:
Level of RAS G12D protein expression=(RAS G12D−compound/β-Actin)−compound/(RAS G12D−DMSO/β-Actin−DMSO)
Level of degradation (%)=(1−Rate of RAS G12D protein expression)×100
Symbols of −, +, ++, +++, ++++, +++++ indicate that the degradation level of Ras protein induced by test compounds was 10% or less, 10 to 30%, 30 to 60%, 60 to 70%, 70 to 75%, and greater than 75%, respectively. “NT” indicates not tested.
“NT” indicates not tested.

T1 sequence (P01116 1-188 isoform P01116-2 G12D): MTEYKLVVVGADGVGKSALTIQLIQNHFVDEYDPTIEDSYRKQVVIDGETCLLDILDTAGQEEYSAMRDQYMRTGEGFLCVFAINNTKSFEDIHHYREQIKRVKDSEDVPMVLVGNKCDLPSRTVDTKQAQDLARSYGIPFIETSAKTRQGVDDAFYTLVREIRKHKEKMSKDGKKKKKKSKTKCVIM

Turning to `CCc1c(F)ccc2cc(O)cc(-c3ncc4c(N5CCC[C@]6(CCO6)C5)nc(OCC5(CN6CCC(N7CCC(c8cc9c(cc8F)c(N8CCC(=O)NC8=O)nn9C)CC7)C6)CC5)nc4c3F)c12` (stereo partly shown) [Compound 226], the percent protein degradation at 0.005 µM was 10 to 30% and the percent protein degradation at 0.05 µM lay in the range of 30 to 60%.

For `CCc1c(F)ccc2cc(O)cc(-c3ncc4c(N5CCC[C@]6(CCO6)C5)nc(OCC5(CN6CCC(CN7Cc8cc9c(cc8C7)C(=O)N(C7CCC(=O)NC7=O)C9=O)CC6)CC5)nc4c3F)c12` (stereo partly shown) [Compound 237], the percent protein degradation at 0.005 µM is 10 to 30% and the percent protein degradation at 0.05 µM was 10 to 30%.

In the case of `CCc1c(F)ccc2cc(O)cc(-c3ncc4c(N5CCC[C@]6(CCO6)C5)nc(OCC5(CN6CCC(C(=O)N7CCC(c8cc9c(cc8F)c(N8CCC(=O)NC8=O)nn9C)CC7)CC6)CC5)nc4c3F)c12` [Compound 224], the percent protein degradation at 0.005 µM lay in the range of 10 to 30% and the percent protein degradation at 0.05 µM fell in the range of 10 to 30%.

In the case of `CCc1c(F)ccc2cc(O)cc(-c3ncc4c(N5CCC[C@]6(CCO6)C5)nc(OCC5(CN6CCC(CN7CCC(c8ccc9ccn(C%10CCC(=O)NC%10=O)c(=O)c9c8)CC7)CC6)CC5)nc4c3F)c12` (stereo partly shown) [Compound 244], the percent protein degradation at 0.005 µM was 30 to 60% and the percent protein degradation at 0.05 µM fell in the range of 30 to 60%.

Turning to `CCc1c(F)ccc2cc(O)cc(-c3ncc4c(N5CCC[C@]6(CCO6)C5)nc(OCC5(CN6CCC(CN7CCC(c8ccc9c(C%10CCC(=O)NC%10=O)nn(C)c9c8)CC7)C6)CC5)nc4c3F)c12` (stereo partly shown) [Compound 215], the percent protein degradation at 0.005 µM lay in the range of 10 to 30% and the percent protein degradation at 0.05 µM lay in the range of 30 to 60%.

Regarding `CCc1c(F)ccc2cc(O)cc(-c3c(Cl)cc4c(N5CCC[C@]6(CCO6)C5)nc(OCC5(CN6CCC7(CC6)CC(N6CCC(c8cc9c(cc8F)c(N8CCC(=O)NC8=O)nn9C)CC6)C7)CC5)nc4c3F)c12` (atropisomer, axis not shown) [Compound 239], the percent protein degradation at 0.005 µM is 10 to 30% and the percent protein degradation at 0.05 µM is at most 10%.

Take `CCc1c(F)ccc2cccc(-c3ncc4c(N5CCC[C@](C)(O)C5)nc(OCC5(CN6CCC7(CC6)CC(N6CCC(c8ccc9c%10c(cccc8%10)C(=O)N9C8CCC(=O)NC8=O)CC6)C7)CC5)nc4c3F)c12` (stereo partly shown) [Compound 199]: the percent protein degradation at 0.005 µM was 30 to 60% and the percent protein degradation at 0.05 µM fell in the range of 30 to 60%.

For the compound `C#Cc1c(F)ccc2cc(O)cc(-c3ncc4c(N5CC=CCC5)nc(OCC5(CN6CCC7(CC6)CC(N6CCC(c8cc9c(cc8F)c(N8CCC(=O)NC8=O)nn9C)CC6)C7)CC5)nc4c3F)c12` [Compound 203], the percent protein degradation at 0.005 µM lay within 10 to 30%.

In the case of `C#Cc1c(F)ccc2cccc(-c3ncc4c(N5CCC[C@](C)(O)C5)nc(OCC5(CN6CCC7(CC6)CC(N6CCC(c8ccc9c%10c(cccc8%10)C(=O)N9C8CCC(=O)NC8=O)CC6)C7)CC5)nc4c3F)c12` (stereo partly shown) [Compound 198], the percent protein degradation at 0.005 µM fell in the range of 30 to 60% and the percent protein degradation at 0.05 µM was 30 to 60%.

Take `CCc1c(F)ccc2cc(O)cc(-c3ncc4c(N5CCC[C@]6(CCO6)C5)nc(OCC5(CN6CCC(C(=O)N7CCC(c8ccc9c(C%10CCC(=O)NC%10=O)nn(C)c9c8)CC7)CC6)CC5)nc4c3F)c12` (stereo partly shown) [Compound 220]: the percent protein degradation at 0.005 µM lay in the range of 30 to 60% and the percent protein degradation at 0.05 µM is 30 to 60%. For the same compound, the Dmax (ASPC1, G12D in Aspc-1 cells) amounted to 55%. The same compound returned a DC50 (half-maximum degradation concentration on G12D in Aspc-1 cells) of 1 to 10 nM.

As to `CCc1c(F)ccc2cc(O)cc(-c3ncc4c(N5CCC[C@]6(CCO6)C5)nc(OCC5(CN6CCC7(CC(N8CCC(c9cc%10c(cc9F)c(N9CCC(=O)NC9=O)nn%10C)CC8)C7)C6)CC5)nc4c3F)c12` (stereo partly shown) [Compound 219], the percent protein degradation at 0.005 µM was in the range of 30 to 60% and the percent protein degradation at 0.05 µM was 60 to 70%.

As for `CCc1c(F)ccc2cc(O)cc(-c3ncc4c(N5CCC[C@]6(CCO6)C5)nc(OCC5(CN6CCC7(CC(c8cc9c(cc8F)c(N8CCC(=O)NC8=O)nn9C)C7)C6)CC5)nc4c3F)c12` (stereo partly shown) [Compound 222], the percent protein degradation at 0.005 µM is at most 10% and the percent protein degradation at 0.05 µM is at most 10%.
